Experimental data as given in patent publication US20090105206A1, “Copper Melphalan And Copper Tegafur As Anti-Tumor Agents” (priority 2004, published 2009).
Values joined by “and” are separate entries in the source; they are usually repeats but may differ in a detail not shown here. Equal entries are not always repeated.

Key:
[1] = system: murine renal cell carcinoma (RENCA) tumor cells applied orthotopically; assay: Example 4: orthotopic renal cell carcinoma model (RENCA), treatment Day 1-7; primary tumor, metastases, vessel density (anti-CD31); type: in vivo, Balb/c mouse; conditions: for Kidney weight / Lung weight / Number of intestinal lymph node metastases / Number of lung metastases: day 19; for Kidney weight / Lung weight / Number of intestinal lymph node metastases / Number of lung metastases / Kidney volume: individual animals; for Kidney volume: test ended day 19
Description: (§1) The tests were carried out on a murine renal cell carcinoma model (RENCA) of the Balb/c mouse. The tumor cells were applied orthotopically into the left-hand renal capsule of syngenic mice. The effect of the treatment carried out on a primary tumor (in the implanted kidney), metastases (predominantly in the lungs, spleen and intestinal lymph nodes) and vessel density were investigated.
(§2) After anesthesia by means of isoflurane narcosis (O2— flow approx. 2.0 l with 0.5-1.5% isoflurane) a small incision was made in the mouse's left flank. The kidney was prepared and presented free from the peritoneum. A 27 G needle was introduced via the lower kidney pole through to below the renal capsule with visual inspection, and […] in 70 μl aliquots respectively applied once. The occurrence of a visible liquid-filled blister between kidney parenchyma and renal capsule and the discoloration of the kidneys were regarded as criteria for successful application. The kidney was subsequently reset and the incision into the abdominal wall closed by means of fascia stitches and cutaneous stitches with absorbable stitching material. Five test groups with ten animals respectively were formed. Group 1 negative control, group 2 positive control melphalan (Glaxo), group 3 and 4 MOC melphalan 2.5 mg/kg and 5 mg/kg. In the case of group 5 an antiangiogenically effective substance was applied as the positive control. The start of treatment was fixed for day 1 post op. for Cu(melphalan)2. Treatment was carried out daily up to day seven (see treatment model). The test was ended after 19 days since, owing to their size, the control tumors required termination for ethical reasons.
• The implantation day was counted as day 0. • Duration of the test 19 days. • Number of animals at beginning of test 50, no animals died during the op.
(§3) After selecting the animals the tissues to be examined were quickly transferred into liquid nitrogen and then frozen at −80° C. 5-10 μm thick sections were prepared from the tissue parts. The preparations were immunohistochemically dyed with an anti-CD31 antibody (Pecam-1) and the number of vessels in the control and treatment groups counted. Two sections of each tumor with three areas respectively were used for counting the vessels.

[2] = system: OVCAR-3/P19 tumor cells; assay: Example 6: NOD/SCID mice s.c. injected with OVCAR-3 tumor cells; type: in vivo, female NOD/SCID mice; design: Vol (tumor volume) Day 20 / Vol (tumor volume) Day 30 / Vol (tumor volume) Day 37: unit: cm^3
Description: 2×10^6 OVCAR-3/P19 tumor cells were s.c. injected into female NOD/SCID mice. The mice were treated as follows.
The treatment began with a mean tumor volume of 80 mm^3.
To level possible differences in tumor volume at the start of treatment in the individual groups and to make evident differences owing to the low absolute volumes in the treatment groups, the relative tumor volumes (RTV) have been analyzed. The relative tumor volume results from the ratio of the volume on day x and the tumor volume at the start of treatment in the same test animal. […] The tumor growth was stopped in group 2 after just 7 days. After 3 days of constant tumor volume a tumor regression began from day 30 (10th day of treatment) in the test animals treated with copper-melphalan.

[3] = system: murine renal cell carcinoma (RENCA) tumor cells applied orthotopically; assay: Example 5: orthotopic RENCA model, late treatment from Day 10; type: in vivo, Balb/c mouse; conditions: for Kidney weight / Lung weight / Number of intestinal lymph node metastases / Number of lung metastases (late treatment day 10-14) / Kidney volume: day 18, individual animals; for Vessel density, later start of treatment day 10-14: individual sections
Description: as §1, §2, §3
The study report matches that of Example 4, differing only in terms of treatment intervals and dose groups. Four test groups with ten animals respectively were formed. Group 1 negative control, group 2 positive control melphalan (Glaxo), groups 3 and 4 Cu(melphalan)2 5 mg/kg and 7.5 mg/kg. The start of treatment was fixed for day 10 post op. for all groups. The intention was for daily treatment from day 10 until day 17 (see treatment model). Owing to toxicities the treatment period was reduced to day 10-14. After 18 days the test was ended since, owing to their size, the control tumors required termination for ethical reasons.
• The implantation day was counted as day 0. • Duration of the test 18 days. • Number of animals at beginning of test 40; no animals died during the op.

[4] = Cu(melphalan)2 4.4 μmol/kg (2.5 mg/kg) i.p. Day 1-7
[5] = Cu(melphalan)2 8.8 μmol/kg (5 mg/kg/d) i.p. Day 1-7
[6] = dose of 2.5 mg/kg and 5 mg/kg, Day 1-7 i.p.
[7] = Gr. 3, 7.5 mg/kg copper-melphalan i.p., individual animals
[8] = Gr. 3, 7.5 mg/kg copper-melphalan i.p., n = 8
[9] = Gr. 3, 7.5 mg/kg copper-melphalan i.p., n = 8, baseline
[10] = Gr. 3, 7.5 mg/kg copper-melphalan vs 5 mg/kg melphalan
[11] = Gr. 3, 7.5 mg/kg copper-melphalan vs 5 mg/kg melphalan, baseline
[12] = Gr. 3, 7.5 mg/kg copper-melphalan vs control (PBS)
[13] = Gr. 3, 7.5 mg/kg copper-melphalan vs control (PBS), baseline
[14] = Cu(melphalan)2 8.8 μmol/kg (5 mg/kg) i.p. Day 10-14
[15] = Cu(melphalan)2 13.2 μmol/kg (7.5 mg/kg/d) i.p. Day 10-14

## N[C@@H](Cc1ccc(N(CCCl)CCCl)cc1)C(=O)[O-].N[C@@H](Cc1ccc(N(CCCl)CCCl)cc1)C(=O)[O-].O.O.[Cu+2] [Cu(melphalan)2]
[1]; [4]
  Kidney weight: 0.78 gr and 2.00 gr and 0.81 gr and 0.38 gr and 1.58 gr and 1.02 gr and 1.28 gr and 1.06 gr and 1.15 gr and 0.29 gr
  Lung weight: 0.20 gr and 0.31 gr and 0.49 gr and 1.07 gr and 0.11 gr (2×) and 0.14 gr and 0.24 gr and 0.13 gr (2×)
  Number of intestinal lymph node metastases: 1 and 2 and 3 and 4 and 0 (5×) and 6
  Number of lung metastases: 378 and >750 (4×) and 9 and 49 and 29 and 3 and 570
  Kidney volume: 1.54 cm^3 and 2.2 cm^3 and 1.2 cm^3 and 0.96 cm^3 and 2.13 cm^3 and 1.53 cm^3 and 1.71 cm^3 (2×) and 1.80 cm^3 and 0.60 cm^3
[1]; [5]
  Kidney weight: 0.79 gr (2×) and 0.19 gr and 1.06 gr and 0.59 gr and 0.85 gr and 0.74 gr and 0.18 gr and 0.29 gr and 0.36 gr
  Lung weight: 0.14 gr (2×) and 0.16 gr and 0.15 gr and 0.11 gr and 0.21 gr and 0.31 gr and 0.22 gr and 0.18 gr and 0.13 gr
  Number of intestinal lymph node metastases: 0 (8×) and 4 and 2
  Number of lung metastases: 11 and 4 (2×) and 162 and 0 and 680 and 16 and 610 and 92 and 7
  Kidney volume: 1.24 cm^3 and 0.44 cm^3 and 1.5 cm^3 and 1.2 cm^3 and 1.33 cm^3 and 1.30 cm^3 and 1.12 cm^3 and 0.6 cm^3 and 0.64 cm^3 and 1.26 cm^3
[1]; approximately quarter-equimolar dose (2.5 mg/kg, 4.4 μmol/kg vs 16.4 μmol/kg melphalan)
  effectiveness compared with melphalan: Effectiveness comparable with melphalan
[1]; approximately semi-equimolar dose (5 mg/kg, 8.8 μmol/kg vs 16.4 μmol/kg melphalan)
  effectiveness compared with melphalan alone: better effectiveness than melphalan alone
[1]; [6]
  anti-metastatic effect, intestinal lymph node metastases: significant anti-metastatic effect
  anti-tumor effect (primary tumor): significant anti-tumor effect
[1]; dose of 5 mg/kg, Day 1-7 i.p.
  anti-metastatic effect, lung metastases: significant anti-metastatic effect
[2]; 7.5 mg/kg copper-melphalan vs 5 mg/kg melphalan i.p.
  effectiveness compared with melphalan (RTV, FIG. 9): more effective than melphalan
[2]; 7.5 mg/kg i.p., 10th day of treatment, after 3 days of constant tumor volume
  day from which tumor regression began: 30 days
[2]; Gr. 3, 7.5 mg/kg copper-melphalan
  mice with tumor regression on day 37: 88%
[2]; Gr. 3, 7.5 mg/kg copper-melphalan i.p. days 21-37 every 2nd day, Day 20 = start of treatment (baseline), individual animals
  Vol (tumor volume) Day 20: 0.08 and 0.11 and 0.05 and 0.04 and 0.10 and 0.02 and 0.09 and 0.12
[2]; Gr. 3, 7.5 mg/kg copper-melphalan i.p., baseline, individual animals
  RTV (relative tumor volume) Day 20: 1.00
[2]; [7]
  RTV (relative tumor volume) Day 30: 1.63 and 1.36 and 2.20 and 1.75 and 1.90 and 2.50 and 1.78 and 1.83
  RTV (relative tumor volume) Day 37: 2.78 and 0.63 and 0.43 and 0.78 and 0.67 and 0.70 and 0.60 and 0.51
  Vol (tumor volume) Day 30: 0.13 and 0.15 and 0.11 and 0.07 and 0.19 and 0.05 and 0.16 and 0.22
  Vol (tumor volume) Day 37: 0.05 (3×) and 0.14 and 0.03 and 0.07 and 0.01 and 0.06
[2]; [8]
  RTV Day 30, mean: 1.87
  RTV Day 30, median: 1.81
  RTV Day 37, mean: 0.89
  RTV Day 37, median: 0.65
  Vol Day 30, mean: 0.14
  Vol Day 30, median: 0.14
  Vol Day 37, mean: 0.06
  Vol Day 37, median: 0.05
[2]; [9]
  RTV Day 20, mean: 1.00
  RTV Day 20, median: 1.00
  Vol Day 20, mean: 0.08
  Vol Day 20, median: 0.09
[2]; [10]
  RTV Day 30, mean in % of group 2: 82.1%
  RTV Day 30, median in % of group 2: 76.8%
  RTV Day 37, mean in % of group 2: 61.3%
  RTV Day 37, median in % of group 2: 45.7%
  Vol Day 30, mean in % of group 2: 80.6%
  Vol Day 30, median in % of group 2: 93.3%
  Vol Day 37, mean in % of group 2: 55.1%
  Vol Day 37, median in % of group 2: 63.4%
[2]; [11]
  RTV Day 20, mean in % of group 2: 100.0%
  RTV Day 20, median in % of group 2: 100.0%
  Vol Day 20, mean in % of group 2: 89.7%
  Vol Day 20, median in % of group 2: 113.3%
[2]; [12]
  RTV Day 30, mean in % of group 1: 31.5%
  RTV Day 30, median in % of group 1: 44.8%
  RTV Day 37, mean in % of group 1: 8.2%
  RTV Day 37, median in % of group 1: 8.0%
  Vol Day 30, mean in % of group 1: 37.6%
  Vol Day 30, median in % of group 1: 50.9%
  Vol Day 37, mean in % of group 1: 9.3%
  Vol Day 37, median in % of group 1: 7.0%
[2]; [13]
  RTV Day 20, mean in % of group 1: 100.0%
  RTV Day 20, median in % of group 1: 100.0%
  Vol Day 20, mean in % of group 1: 81.3%
  Vol Day 20, median in % of group 1: 113.3%
[2]; Mann-Whitney rank sum test, mean tumor volume p=0.021, mean RTV p=0.01
  statistical comparison of effectiveness with melphalan at end of treatment (day 37): statistically significant higher degree of effectiveness
[3]; [14]
  Kidney weight: 1.70 gr and 1.78 gr (2×) and 1.88 gr and 1.23 gr and 0.75 gr and 1.56 gr
  Lung weight: 0.11 gr (2×) and 0.14 gr and 0.15 gr and 0.13 gr (2×) and 0.21 gr
  Number of intestinal lymph node metastases: 20 and 40 and 36 and 12 and 64 and 51 and 75
  Number of lung metastases (late treatment day 10-14): 28 and 0 (2×) and 21 and 345 and 431 and 750
  Vessel density, later start of treatment day 10-14: 44 (2×) and 38 and 34 and 56 (2×) and 46 and 26 and 51 and 72 and 25 and 35 and 40 and 31
[3]; Cu(melphalan)2 8.8 μmol/kg (5 mg/kg) i.p. from Day 10 (planned 10-17, reduced to 10-14)
  Kidney volume: 3.12 cm^3 and 2.60 cm^3 and 2.63 cm^3 and 2.08 cm^3 and 2.90 cm^3 and 1.96 cm^3 and 2.76 cm^3
[3]; [15]
  Kidney weight: 1.37 gr and 2.39 gr and 0.26 gr and 1.90 gr and 1.05 gr and 0.27 gr and 1.92 gr and 0.46 gr and 2.50 gr and 0.74 gr
  Lung weight: 0.11 gr and 0.13 gr (2×) and 0.10 gr
  Number of intestinal lymph node metastases: 0
  Number of lung metastases (late treatment day 10-14): 0 (4×) and 3 and 77 and 750 and 300 and 4 and 10
  Vessel density, later start of treatment day 10-14: 35 (2×) and 52 and 58 and 43 and 48 and 65 and 53
[3]; Cu(melphalan)2 13.2 μmol/kg (7.5 mg/kg/d) i.p. from Day 10 (planned 10-17, reduced to 10-14)
  Kidney volume: 1.96 cm^3 and 3.08 cm^3 and 0.60 cm^3 and 2.60 cm^3 and 1.98 cm^3 and 0.91 cm^3 and 3.06 cm^3 and 1.22 cm^3 and 3.33 cm^3 and 1.68 cm^3
[3]; dose of 8.8 μmol/kg, Day 10-14
  antiangiogenic effect (vessel density): significantly antiangiogenic
[3]; dose of 13.2 μmol/kg, Day 10-14
  anti-metastatic effect, lung metastases and lymph node metastases: significant anti-metastatic effect
[3]; dose of both 8.8 μmol/kg and 13.2 μmol/kg, Day 10-14
  anti-tumoral effect against the primary tumor: significant anti-tumoral effect
Blue solid
  chemical stability: chemically stable
Investigations of kidney cell carcinoma and lung metastases formation
  effectiveness compared with melphalan: much more effective than melphalan
